{
  "source": "ChEMBL document CHEMBL1131228",
  "about": "“Molecular modeling of phenothiazines and related drugs as multidrug resistance modifiers: a comparative molecular field analysis study” (1998)",
  "system": "MCF7-DOX",
  "experiment": "Anti MDR activity was expressed as MDR ratio or MDR fold reversal in doxorubicin resistant human breast carcinoma tumor cell line MCF-7/DOX",
  "assay_type": "functional",
  "data": [
    {"compound": "CCN(CC)CCC=C1c2ccccc2Sc2ccc(Cl)cc21", "values": [
      {"measurement": "MDR ratio", "value": 7.2}
    ]},
    {"compound": "CN(C)CCCN1c2ccccc2Sc2ccccc21", "note": "[PROMAZINE]", "values": [
      {"measurement": "MDR ratio", "value": 1.2}
    ]},
    {"compound": "CN(C)CCCN1c2ccccc2Sc2cc(Cl)ccc21", "values": [
      {"measurement": "MDR ratio", "value": 1.3}
    ]},
    {"compound": "CN(C)C/C=C1/c2ccccc2Sc2ccc(Cl)cc21", "values": [
      {"measurement": "MDR ratio", "value": 1.1}
    ]},
    {"compound": "CNCCCN1c2ccccc2Sc2ccc(Cl)cc21", "note": "[NOR1-CHLORPROMAZINE]", "values": [
      {"measurement": "MDR ratio", "value": 1.2}
    ]},
    {"compound": "CCN(CC)CCCC(C)Nc1c2ccc(Cl)cc2nc2ccc(OC)cc12", "note": "(configuration not stated) [QUINACRINE]", "values": [
      {"measurement": "MDR ratio", "value": 1.3}
    ]},
    {"compound": "CN(C)CCCCN1c2ccccc2Sc2ccc(Cl)cc21", "values": [
      {"measurement": "MDR ratio", "value": 2}
    ]},
    {"compound": "CN(C)CCC=C1c2ccccc2Sc2ccc(C(F)(F)F)cc21", "values": [
      {"measurement": "MDR ratio", "value": 2.8}
    ]},
    {"compound": "FLUPENTIXOL", "values": [
      {"measurement": "MDR ratio", "value": 4.8}
    ]},
    {"compound": "CN(C)CCCN1c2ccc(O)cc2Sc2ccc(Cl)cc21", "note": "[7-HYDROXYCHLORPROMAZINE]", "values": [
      {"measurement": "MDR ratio", "value": 1}
    ]},
    {"compound": "CN(C)CC/C=C1/c2ccccc2Sc2ccc(Cl)cc21", "note": "[CHLORPROTHIXENE]", "values": [
      {"measurement": "MDR ratio", "value": 2}
    ]},
    {"compound": "CN(C)CCCN1c2cc(Cl)ccc2Sc2cc(O)c(O)cc21", "values": [
      {"measurement": "MDR ratio", "value": 0.8}
    ]},
    {"compound": "CN(C)CCCN1c2ccccc2Sc2cccc(Cl)c21", "values": [
      {"measurement": "MDR ratio", "value": 1.3}
    ]},
    {"compound": "CSc1ccc2c(c1)N(CCCN(C)C)c1ccccc1S2", "values": [
      {"measurement": "MDR ratio", "value": 1.5}
    ]},
    {"compound": "OCCN1CCN(CC/C=C2/c3ccccc3Sc3ccc(C(F)(F)F)cc32)CC1", "note": "[Z-FLUPENTIXOL]", "values": [
      {"measurement": "MDR ratio", "value": 15.2}
    ]},
    {"compound": "OCCN1CCN(C/C=C2/c3ccccc3Sc3ccc(Cl)cc32)CC1", "values": [
      {"measurement": "MDR ratio", "value": 1.6}
    ]},
    {"compound": "CN(C)CCN1c2ccccc2Sc2ccc(Cl)cc21", "note": "[CHOLRPHENETHAZINE]", "values": [
      {"measurement": "MDR ratio", "value": 1.5}
    ]},
    {"compound": "CC(CN1c2ccccc2Sc2ccccc21)N(C)C", "note": "(configuration not stated) [PROMETHAZINE]", "values": [
      {"measurement": "MDR ratio", "value": 1.9}
    ]},
    {"compound": "CN(C)CCCN1c2ccccc2CCc2ccccc21", "note": "[IMIPRAMINE]", "values": [
      {"measurement": "MDR ratio", "value": 2.5}
    ]},
    {"compound": "CN(C)CC/C=C1/c2ccccc2Sc2ccc(C(F)(F)F)cc21", "values": [
      {"measurement": "MDR ratio", "value": 1.8}
    ]},
    {"compound": "Clc1ccc2c(c1)C(=CCCN1CCCCC1)c1ccccc1S2", "values": [
      {"measurement": "MDR ratio", "value": 15}
    ]},
    {"compound": "CCN(CC)CCCN1c2ccccc2Sc2ccc(Cl)cc21", "note": "[CHLORPROETHAZINE]", "values": [
      {"measurement": "MDR ratio", "value": 2.2}
    ]},
    {"compound": "CCN(CC)CC/C=C1/c2ccccc2Sc2ccc(Cl)cc21", "values": [
      {"measurement": "MDR ratio", "value": 4}
    ]},
    {"compound": "CN(C)CCCN1c2ccccc2[S+]([O-])c2ccc(Cl)cc21", "note": "(configuration not stated) [CHLOROPROMAZINE SULFOXIDE]", "values": [
      {"measurement": "MDR ratio", "value": 2.2}
    ]},
    {"compound": "CN(C)CCCN1c2cc(O)ccc2Sc2cc(O)c(Cl)cc21", "values": [
      {"measurement": "MDR ratio", "value": 0.9}
    ]},
    {"compound": "OCCN1CCN(CCCN2c3ccccc3Sc3ccc(Cl)cc32)CC1", "note": "[PERPHENAZINE]", "values": [
      {"measurement": "MDR ratio", "value": 2}
    ]},
    {"compound": "CN(C)CCCN1c2ccccc2Sc2c(Cl)cccc21", "values": [
      {"measurement": "MDR ratio", "value": 1.4}
    ]},
    {"compound": "Clc1ccc2c(c1)/C(=C\\CCN1CCCCC1)c1ccccc1S2", "values": [
      {"measurement": "MDR ratio", "value": 6.7}
    ]},
    {"compound": "OCCN1CCN(CCCC2c3ccccc3Sc3ccc(Cl)cc32)CC1", "note": "(configuration not stated)", "values": [
      {"measurement": "MDR ratio", "value": 9.7}
    ]},
    {"compound": "CN(C)CC=C1c2ccccc2Sc2ccc(Cl)cc21", "values": [
      {"measurement": "MDR ratio", "value": 1.3}
    ]},
    {"compound": "NCCCN1c2ccccc2Sc2ccc(Cl)cc21", "note": "[NOR2-CHLORPROMAZINE]", "values": [
      {"measurement": "MDR ratio", "value": 1.1}
    ]},
    {"compound": "OCCN1CCN(CCCN2c3ccccc3Sc3ccc(C(F)(F)F)cc32)CC1", "note": "[FLUPHENAZINE]", "values": [
      {"measurement": "MDR ratio", "value": 2.7}
    ]},
    {"compound": "OCCN1CCN(CC/C=C2/c3ccccc3Sc3ccc(Cl)cc32)CC1", "note": "(stereo in doubt; 34) [ZUCLOPENTHIXOL]", "values": [
      {"measurement": "MDR ratio", "value": 2.6}
    ]},
    {"compound": "OCCN1CCN(CC/C=C2/c3ccccc3Sc3ccc(Cl)cc32)CC1", "note": "(stereo in doubt; 35) [ZUCLOPENTHIXOL]", "values": [
      {"measurement": "MDR ratio", "value": 15}
    ]},
    {"compound": "CN1CCN(CCCN2c3ccccc3Sc3ccc(C(F)(F)F)cc32)CC1", "note": "[TRIFLUOPERAZINE]", "values": [
      {"measurement": "MDR ratio", "value": 3.4}
    ]},
    {"compound": "CN(C)CCCN1c2ccccc2Sc2ccc(Cl)cc21", "note": "[CHLORPROMAZINE]", "values": [
      {"measurement": "MDR ratio", "value": 1.6}
    ]},
    {"compound": "CN(C)CCC=C1c2ccccc2Sc2ccc(Cl)cc21", "values": [
      {"measurement": "MDR ratio", "value": 7}
    ]}
  ]
}
